# Test system: patient with chronic constipation
# Assay: Example 7: case report, bisoxatin added to colchicine in chronic constipation
# Type: in vivo, human
# Settings: 1 mg in the morning and 1.5 in the evening; still missing a day here and there
# Method: They were given added bisoxatin of 120 mg twice daily. […] They were going too well however and the bisoxatin had to be cut back 120 mg mane. For a week or so they were able to take the bisoxatin 120 in the morning and every second day 120 at night. They continued with the treatment for 3 or 4 weeks to date.
smiles,measurement,value
COc1cc2c(c(OC)c1OC)-c1ccc(OC)c(=O)cc1[C@@H](NC(C)=O)CC2 [colchicine],response of constipation to colchicine alone,did not respond

# Reference: patent US20150216806A1, “LAXATIVE COMPOSITIONS AND METHODS FOR TREATING CONSTIPATION AND RELATED GASTROINTESTINAL DISEASES AND CONDITIONS” (SALIX PHARMACEUTICALS, INC., priority 2012, published 2015)
